ChEMBL document CHEMBL3085626, “Synthesis and evaluation of multi-target-directed ligands against Alzheimer's disease based on the fusion of donepezil and ebselen” (J Med Chem, 2013)
Active and inactive are the calls of the source. The rule behind the calls is not given here.

Tests used:
Cholinesterase = Cholinesterase (Equus caballus, UniProt P81908)
Description: Inhibition of equine serum BuChE using butyrylthiocholine chloride as substrate preincubated for 15 mins followed by substrate addition measured every 1 min by Ellman's method

Acetylcholinesterase [1] = target: T1, Acetylcholinesterase (Electrophorus electricus, UniProt O42275)
Description: Inhibition of electric eel AChE using acetylthiocholine chloride as substrate preincubated for 15 mins followed by substrate addition measured every 1 min by Ellman's method

Acetylcholinesterase [2] = target: Acetylcholinesterase (Homo sapiens, UniProt P22303); assay: Inhibition of human erythrocyte AChE using acetylthiocholine chloride as substrate preincubated for 15 mins followed by substrate addition measured every 1 min by Ellman's method
in vitro = settings: PAMPA
Description: Effective permeability of the compound at 5 mg/mL after 10 hrs by PAMPA

Mus musculus [3] = assay: Acute toxicity in KM mouse assessed as mortality up to 2000 mg/kg, po after 24 hrs; assay type: organism-based; set-up: dose 2000 mg/kg, route oral; settings: in vivo
[4] = target: Acetylcholinesterase (Electrophorus electricus) (UniProt O42275); assay: Mixed-type inhibition of electric eel AChE using acetylthiocholine chloride as substrate preincubated for 15 mins followed by substrate addition by Lineweaver-Burk plot analysis
[5] = Acute toxicity in po dosed KM mouse measured for 14 days; assay type: organism-based; settings: in vivo
Mus musculus [6] = assay: Acute toxicity in KM mouse assessed as effect on water consumption up to 2000 mg/kg, po after 4 hrs; assay type: organism-based; set-up: dose 2000 mg/kg, route oral; settings: in vivo
Acetylcholinesterase [7] = target: T1, Acetylcholinesterase; assay: […] inhibition of electric eel AChE using acetylthiocholine chloride as substrate preincubated for 15 mins followed by substrate addition by Lineweaver-Burk plot analysis
Mus musculus [8] = assay: Acute toxicity in KM mouse assessed as effect on food consumption up to 2000 mg/kg, po after 4 hrs; assay type: organism-based; set-up: dose 2000 mg/kg, route oral; settings: in vivo
Mus musculus [9] = assay: Acute toxicity in KM mouse assessed as effect on body weight up to 2000 mg/kg, po after 4 hrs; assay type: organism-based; set-up: dose 2000 mg/kg, route oral; settings: in vivo

Sequence of Acetylcholinesterase (Homo sapiens, UniProt P22303) (P22303 whole entry): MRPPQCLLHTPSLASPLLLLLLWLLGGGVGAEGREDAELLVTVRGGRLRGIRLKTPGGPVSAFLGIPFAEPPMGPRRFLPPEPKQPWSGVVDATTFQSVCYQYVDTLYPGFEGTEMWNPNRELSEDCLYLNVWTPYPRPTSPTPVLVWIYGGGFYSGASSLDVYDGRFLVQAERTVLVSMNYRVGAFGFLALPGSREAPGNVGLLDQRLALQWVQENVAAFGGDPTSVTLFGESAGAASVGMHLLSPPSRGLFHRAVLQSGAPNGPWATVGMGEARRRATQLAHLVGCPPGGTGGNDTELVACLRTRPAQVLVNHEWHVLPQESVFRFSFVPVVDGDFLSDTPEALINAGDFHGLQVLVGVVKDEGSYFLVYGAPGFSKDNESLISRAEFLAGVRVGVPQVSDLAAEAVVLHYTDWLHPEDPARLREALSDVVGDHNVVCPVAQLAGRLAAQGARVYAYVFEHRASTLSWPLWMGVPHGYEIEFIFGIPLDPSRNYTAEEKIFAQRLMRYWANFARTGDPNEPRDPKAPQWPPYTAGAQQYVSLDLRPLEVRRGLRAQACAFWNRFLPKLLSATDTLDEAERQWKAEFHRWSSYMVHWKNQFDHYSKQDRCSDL
Sequence of Cholinesterase (P81908 whole entry): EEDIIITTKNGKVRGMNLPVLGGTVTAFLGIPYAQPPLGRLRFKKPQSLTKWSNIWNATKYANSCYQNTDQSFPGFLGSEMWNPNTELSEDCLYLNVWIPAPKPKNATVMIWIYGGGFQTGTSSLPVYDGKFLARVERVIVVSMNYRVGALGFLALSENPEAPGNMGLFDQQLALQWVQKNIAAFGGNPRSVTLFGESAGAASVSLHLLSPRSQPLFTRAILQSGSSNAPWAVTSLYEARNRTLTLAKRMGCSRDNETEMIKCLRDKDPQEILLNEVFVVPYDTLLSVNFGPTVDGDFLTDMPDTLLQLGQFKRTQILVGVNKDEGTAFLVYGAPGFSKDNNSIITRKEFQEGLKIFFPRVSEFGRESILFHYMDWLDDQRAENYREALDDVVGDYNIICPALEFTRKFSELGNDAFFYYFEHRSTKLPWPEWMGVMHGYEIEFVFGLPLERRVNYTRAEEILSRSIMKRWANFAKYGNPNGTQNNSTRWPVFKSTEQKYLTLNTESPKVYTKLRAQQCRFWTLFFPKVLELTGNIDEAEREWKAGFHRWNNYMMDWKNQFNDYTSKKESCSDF
T1 sequence (O42275 whole entry): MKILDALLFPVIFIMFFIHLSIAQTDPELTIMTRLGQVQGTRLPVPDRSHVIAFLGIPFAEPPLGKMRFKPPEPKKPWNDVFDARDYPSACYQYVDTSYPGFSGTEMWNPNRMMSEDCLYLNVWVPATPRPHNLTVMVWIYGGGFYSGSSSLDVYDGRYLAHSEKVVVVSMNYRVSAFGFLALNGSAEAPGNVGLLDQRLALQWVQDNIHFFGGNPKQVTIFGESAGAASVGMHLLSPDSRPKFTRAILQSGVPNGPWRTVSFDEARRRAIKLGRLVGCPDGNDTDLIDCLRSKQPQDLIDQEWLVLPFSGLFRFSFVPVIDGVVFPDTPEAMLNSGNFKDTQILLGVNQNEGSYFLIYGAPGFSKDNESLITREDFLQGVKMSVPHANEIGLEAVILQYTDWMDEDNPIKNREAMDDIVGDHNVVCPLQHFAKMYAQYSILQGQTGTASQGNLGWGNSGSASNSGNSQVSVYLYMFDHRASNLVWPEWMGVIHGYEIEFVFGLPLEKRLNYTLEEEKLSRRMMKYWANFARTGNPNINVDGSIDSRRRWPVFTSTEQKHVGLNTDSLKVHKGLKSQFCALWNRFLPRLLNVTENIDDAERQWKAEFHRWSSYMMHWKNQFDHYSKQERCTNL
Sequence of Acetylcholinesterase (Electrophorus electricus) (O42275 24-633 limits assumed): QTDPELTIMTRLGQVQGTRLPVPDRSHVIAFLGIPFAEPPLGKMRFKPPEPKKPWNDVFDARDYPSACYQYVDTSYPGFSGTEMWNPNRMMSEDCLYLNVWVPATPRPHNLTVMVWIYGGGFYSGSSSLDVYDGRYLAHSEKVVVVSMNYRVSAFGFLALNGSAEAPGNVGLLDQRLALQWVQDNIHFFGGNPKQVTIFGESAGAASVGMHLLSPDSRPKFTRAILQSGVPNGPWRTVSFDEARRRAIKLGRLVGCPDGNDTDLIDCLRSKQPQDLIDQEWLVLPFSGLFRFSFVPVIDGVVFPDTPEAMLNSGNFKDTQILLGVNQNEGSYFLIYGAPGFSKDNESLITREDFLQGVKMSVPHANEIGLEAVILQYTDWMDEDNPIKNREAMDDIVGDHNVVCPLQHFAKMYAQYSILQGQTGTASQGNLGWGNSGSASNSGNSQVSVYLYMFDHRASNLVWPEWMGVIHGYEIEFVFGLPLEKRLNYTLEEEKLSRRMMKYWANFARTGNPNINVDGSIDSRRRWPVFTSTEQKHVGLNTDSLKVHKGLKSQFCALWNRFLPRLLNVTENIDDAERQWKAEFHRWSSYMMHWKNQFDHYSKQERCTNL

| Compound | IC50 (Cholinesterase) [nM] | IC50 (Acetylcholinesterase [1]) [nM] | other results |
| --- | --- | --- | --- |
| COc1cc2[se]n(C3CCN(Cc4ccccc4)CC3)c(=O)c2cc1OC | 9460 | 11800 | – |
| O=c1c2ccccc2[se]n1CCC1CCN(Cc2ccccc2)CC1 | 2130 | 382 | – |
| O=c1c2ccccc2[se]n1-c1ccccc1 [EBSELEN] | 10400 | 41000 | – |
| COc1cc2[se]n(CCCC3CCN(Cc4ccccc4)CC3)c(=O)c2cc1OC | 1500 | 72 | IC50 (Acetylcholinesterase [2]): 231 nM; Papp at 10 h, 5 mg/mL (in vitro): 10.3 ×10⁻⁶ cm/s |
| COc1cc2[se]n(CCCCC3CCN(Cc4ccccc4)CC3)c(=O)c2cc1OC | 517 | 38 | IC50 (Acetylcholinesterase [2]): 103 nM; Papp at 10 h, 5 mg/mL (in vitro): 15.8 ×10⁻⁶ cm/s |
| O=c1c2ccc(F)cc2[se]n1C1CCN(Cc2ccccc2)CC1 | 10600 | 19700 | – |
| O=c1c2ccc(Cl)cc2[se]n1CCC1CCN(Cc2ccccc2)CC1 | 2350 | 206 | – |
| O=c1c2ccc(Cl)cc2[se]n1C1CCN(Cc2ccccc2)CC1 | 21500 | 10100 | – |
| O=c1c2ccccc2[se]n1CC1CCN(Cc2ccccc2)CC1 | 3630 | 19800 | – |
| COc1cc2c(cc1OC)[Se](=O)N(CCC1CCN(Cc3ccccc3)CC1)C2=O (stereo unspecified) | 1360 | 43 | IC50 (Acetylcholinesterase [2]): 163 nM |
| COc1cc2[se]n(CCC3CCN(Cc4ccccc4)CC3)c(=O)c2cc1OC | 1590 | 42 | Activity (Mus musculus [3]): Non-toxic; IC50 (Acetylcholinesterase [2]): 97 nM; inhibition [4]: Active; MTD at 336 h [5]: 2000 mg/kg; Papp at 10 h, 5 mg/mL (in vitro): 8.6 ×10⁻⁶ cm/s; Activity (Mus musculus [6]): Non-toxic; Ki (Acetylcholinesterase [7]): 17 nM; Activity (Mus musculus [8]): Non-toxic; Activity (Mus musculus [9]): Non-toxic |
| O=c1c2ccc(F)cc2[se]n1CC1CCN(Cc2ccccc2)CC1 | 3460 | 12300 | – |
| COc1cc2[se]n(CC3CCN(Cc4ccccc4)CC3)c(=O)c2cc1OC | 3920 | 4230 | – |
| O=c1c2ccc(Cl)cc2[se]n1CC1CCN(Cc2ccccc2)CC1 | 2300 | 6160 | – |
| O=c1c2ccccc2[se]n1C1CCN(Cc2ccccc2)CC1 | 8320 | 17600 | – |
| O=c1c2ccc(F)cc2[se]n1CCC1CCN(Cc2ccccc2)CC1 | 3670 | 224 | – |
